Patent US6979673B1, “Method and compositions for modulating somatolactogenic functions” (Trustees of the University of Pennsylvania, priority 1999, dated 2005)

Columns and labels:
PRL [1] = target: T1, PRL (Homo sapiens, UniProt P01236); assay: Co-immunoprecipitation of admixed purified epitope-tagged proteins; format: binding; set-up: Full length PRL cDNA was generated by PCR; made in house; host or cells: Drosophila S2 cells (pAc5/V5-HisA); settings: reducing agent or divalent cation facilitated the interaction
T1 sequence (P01236 29-227): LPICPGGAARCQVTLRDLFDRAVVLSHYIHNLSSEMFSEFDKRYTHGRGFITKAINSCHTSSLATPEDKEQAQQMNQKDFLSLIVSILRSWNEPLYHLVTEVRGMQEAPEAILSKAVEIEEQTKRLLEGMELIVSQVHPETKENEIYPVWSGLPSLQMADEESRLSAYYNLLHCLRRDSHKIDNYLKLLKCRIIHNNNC

Nb2 cells [2] = assay: PRL-driven proliferation of Nb2 cells (3H-thymidine); format: cell-based, rat; settings: for enhancement of PRL-driven growth vs cultures that received only PRL: Nb2 cells, biphasic, most prominent at 5–10 mM CypB and 50 pM PRL
Experimental: (§1) The effect of exogenous CypB on PRL-driven proliferation was examined with the rat Nb2 T-cell and the human T47D breast cancer line. […] This dose-dependent biphasic effect was most prominent at physiologic concentrations ([…]) of CypB and PRL (50 pM) found in human serum. […] To determine the effect of CypB on cellular growth driven by the larger family of cytokines, to which PRL belongs, proliferation driven by interleukin-2 (IL-2), IL-3 and GH was examined.
(§2) Nb2-cells (5×10^4; PRL-dependent, rat T-lymphoma) were plated in each well of 96 well plates in a defined DMEM-serum free medium (0.1 mM 2-mercaptoethanol, 1% penicillin/streptomycin, and 1% ITS+ (Calbiochem)). Cells were rested for 24 hours at 37° C. in this defined medium in the absence of PRL before the addition of 5–500 pM PRL (either as human pituitary isolated PRL, National Hormone and Pituitary Program, NIDDK; recombinant human PRL from E. coli, Genzyme; or recombinant human PRL from Drosophila S2 cells) alone or premixed with 1–2000 fold excess of purified CypB. Parallel studies were performed using human pituitary-derived GH (National Hormone and Pituitary Program, NIDDK). Cultures were incubated for 48 hours at 37° C. and proliferation was evaluated by the addition of 0.5 μCi of ^3H-thymidine for four hours followed by harvesting and scintillography. When stimulated with PRL alone, Nb2 cells yield sigmoid shaped growth curves that plateau at approximately 2 ng PRL/ml.

Nb2 cells [3] = assay: GH-driven proliferation; format: cell-based, rat; settings: physiological concentrations of CypB
Experimental: as §1
as §2, with “When stimulated with PRL alone, Nb2 cells yield sigmoid shaped growth curves that plateau at approximately 2 ng PRL/ml.” left out

[4] = test system: T47D human breast cancer cells; assay: Nuclear retrotranslocation of PRL, anti-PRL indirect immunofluorescence; format: cell-based; settings: added to defined T47D culture medium; CypB added to EGF-containing medium
Experimental: Experiments were performed to examine the ability of CypB to enhance nuclear retrotranslocation of PRL, and thereby PRL-driven proliferation.
The role of this sequence in the CypB-mediated retrotranslocation of PRL, and its associated enhancement of growth was tested by mutagenic approaches. The putative nuclear localization sequence of CypB was deleted in the mutant CypB-NT.

[5] = test system: IL-3-driven proliferation; assay: IL-3-driven proliferation; format: cell-based; settings: varying concentration of CypB
Experimental: as §1

PRL [6] = target: T1, PRL; assay: Co-immunoprecipitation of PRL with CypB from human serum; format: binding
[7] = test system: IL-2-driven proliferation; assay: IL-2-driven proliferation; format: cell-based; settings: varying concentration of CypB
Experimental: as §1

direct interaction with PRL (co-immunoprecipitation) (PRL [1]) | Substance | enhancement of PRL-driven growth vs cultures that received only PRL (Nb2 cells [2]) | enhancement of GH-driven proliferation vs GH alone (Nb2 cells [3]) | T47D nuclei exhibiting anti-PRL immunofluorescence [4] | effect on IL-3-driven proliferation [5] | co-immunoprecipitation of PRL from human serum (PRL [6]) | effect on IL-2-driven proliferation [7] | enhancement of PRL-induced proliferation (Nb2 cells [2]; cell line not given)
failed to interact | CypA: recombinant form of the highly homologous cyclophilin family member CypA [reference compound] | did not result in any potentiation |  |  |  |  |  | 
interact directly | CypB: cyclophilin B, peptidyl prolyl isomerase, GenBank NM 000942, SEQ ID NO: 1; recombinant His-tagged | eight-fold | forty-fold | 95–100% | Neither IL-2- nor IL-3-driven proliferation was altered | direct co-immunoprecipitation of PRL with CypB from human serum | Neither IL-2- nor IL-3-driven proliferation was altered | failed to enhance
